Consider 47 compounds from patent US5366982A (priority 1990, dated 1994).

leukotriene B4 receptors, sequence (H0VYV8 1-348): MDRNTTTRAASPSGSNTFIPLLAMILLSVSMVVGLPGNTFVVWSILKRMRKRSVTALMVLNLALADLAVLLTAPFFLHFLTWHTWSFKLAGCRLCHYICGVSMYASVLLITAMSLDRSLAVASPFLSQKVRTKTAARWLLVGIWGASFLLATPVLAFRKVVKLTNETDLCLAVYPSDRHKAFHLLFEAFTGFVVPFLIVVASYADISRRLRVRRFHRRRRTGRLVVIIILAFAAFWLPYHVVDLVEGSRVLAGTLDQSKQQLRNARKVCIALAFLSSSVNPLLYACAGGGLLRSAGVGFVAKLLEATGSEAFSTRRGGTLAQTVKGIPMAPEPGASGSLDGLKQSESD

In the first test the test system is guinea-pig pulmonary parenchyma. The test is described as follows: L. Parenchyma: guinea-pig pulmonary parenchyma contraction antagonism induced by LTB4 (Sirois). To be noted: Cavia porcellus, read-out: IC50 L. Parenchyma. In kind it is cell-based. As for the experimental part: Further, compounds of this invention are shown to be leukotriene B4 antagonists in the technique of guinea-pig pulmonary parenchyma contraction antagonism induced by LTB4 described by P. Sirois et al., Pharmacology, 31, 225-236 (1985). In this technique, products are active at concentrations of between about 1 to about 10,000 nM.
In general, IC50 refers to the point on the concentration scale where inhibition reaches its midpoint. In the case of `O=C(O)CCCCCOc1cc(-c2ccccc2)cc(-c2ccccc2Cl)n1`, the IC50 was found to be 0.2 µM.

The test is the same for the next values; noted with them: Cavia porcellus; Table XIX; guinea-pig pulmonary parenchyma contraction induced by LTB4; read-out: IC50 L. Parenchyma.
Take `CC(C)(CCCCOc1cc(-c2ccccc2)cc(-c2ccccc2)n1)C(=O)O` [2,2-dimethyl-6-[(4,6-diphenyl-2-pyridyl)oxy]hexanoic acid]: the IC50 came out at 0.01 µM.

Consider `CC(C)(CCCCOc1cc(-c2ccc3c(c2)OCO3)cc(-c2ccccc2)n1)C(=O)O` [2,2-dimethyl-6-{[4-(3,4-methylenedioxyphenyl)-6-phenyl-2-pyridyl]oxy}hexanoic acid], for which the concentration for half-maximal inhibition (IC50) was found to be 0.14 µM.

On to `CC(C)(CCCCCOc1cc(-c2ccccc2)cc(-c2ccccc2)n1)C(=O)O` [2,2-dimethyl-7-[(4,6-diphenyl-2-pyridyl)oxy]heptanoic acid], for which the concentration for half-maximal inhibition (IC50) was determined as 0.03 µM.

Turning to `CC(CCCCOc1cc(-c2cccc(Cl)c2)cc(-c2ccccc2)n1)C(=O)O` (stereo not drawn) [2-methyl-6-{[4-(3-chlorophenyl)-6-phenyl-2-pyridyl]oxy}hexanoic acid], the IC50 was determined as 1 µM.

For `COc1cccc(-c2cc(OCCCCC(C)C(=O)O)nc(-c3ccccc3)c2)c1` (stereo not drawn) [2-methyl-6-{[4-(3-methoxyphenyl)-6-phenyl-2-pyridyl]oxy}hexanoic acid], the IC50 is 0.02 µM.

Turning to `CC(CCCCOc1cc(-c2ccc(N)cc2)cc(-c2ccccc2)n1)C(=O)O` (stereo not drawn) [2-methyl-6-{[4-(4-aminophenyl)-6-phenyl-2-pyridyl]oxy}hexanoic acid], the IC50 was found to be 0.02 µM.

`CC(CCCCOc1cc(-c2ccc(Cl)cc2)cc(-c2ccccc2)n1)C(=O)O` (stereo not drawn) [2-methyl-6-{[4-(4-chlorophenyl)-6-phenyl-2-pyridyl]oxy}hexanoic acid]: the IC50 came out at 0.07 µM.

`COc1ccc(-c2cc(OCCCCC(C)C(=O)O)nc(-c3ccccc3)c2)cc1` (stereo not drawn) [2-methyl-6-{[4-(4-methoxyphenyl)-6-phenyl-2-pyridyl]oxy}hexanoic acid]: the IC50 was 0.02 µM.

As for `Cc1ccc(-c2cc(OCCCCC(C)C(=O)O)nc(-c3ccccc3)c2)cc1` (stereo not drawn) [2-methyl-6-{[4-(4-methylphenyl)-6-phenyl-2-pyridyl]oxy}hexanoic acid], the concentration for half-maximal inhibition (IC50) is 0.02 µM.

For the compound `c1ccc(-c2cc(OCCCCCc3nn[nH]n3)nc(-c3ccccc3)c2)cc1` [5-{[5-(4,6-diphenyl-2-pyridyl)oxy]pentyl}-[1H]-tetrazole], the half-maximal inhibitory concentration (IC50) stood at 0.01 µM.

Turning to `O=C(O)CCCCCOc1cc(-c2ccccc2F)cc(-c2ccccc2)n1` [6-{[4-(2-fluorophenyl)-6-phenyl-2-pyridyl]oxy}hexanoic acid], the IC50 stood at 1.7 µM.

`Nc1ccc(-c2cc(OCCCCCC(=O)O)nc(-c3ccccc3)c2)cc1` [6-{[4-(4-aminophenyl)-6-phenyl-2-pyridyl]oxy}hexanoic acid]: the IC50 worked out at 0.04 µM.

With `CN(C)c1ccc(-c2cc(OCCCCCC(=O)O)nc(-c3ccccc3)c2)cc1` [6-{[4-(4-dimethylaminophenyl)-6-phenyl-2-pyridyl]oxy}hexanoic acid], the 50% inhibitory concentration (IC50) was determined as 6 µM.

As to `CNc1ccc(-c2cc(OCCCCCC(=O)O)nc(-c3ccccc3)c2)cc1` [6-{[4-(4-methylaminophenyl)-6-phenyl-2-pyridyl]oxy}hexanoic acid], the IC50 stood at 0.15 µM.

The next test addresses leukotriene B4 receptors (Cavia porcellus, UniProt H0VYV8). In words: biochemical. The test is classed as binding, guinea-pig. The conditions noted are these: Table XIX; guinea-pig spleen membranes, tritium-labelled LTB4; read-out: IC50 Binding (Cheng).
With `O=C(O)CCCCCOc1cc(-c2ccccc2)cc(-c2ccccc2Cl)n1`, the IC50 was 0.0018 µM.

Turning to `COc1ccc(-c2cc(OCCCCCC(=O)O)nc(-c3ccc(OC)cc3)c2)cc1` [6-{[4,6-di(4-methoxyphenyl)-2-pyridyl]oxy}hexanoic acid], the IC50 worked out at 3 µM.

For the compound `O=C(O)CCCCCOc1cc(-c2ccccc2Cl)cc(-c2ccccc2)n1` [6-{[4-(2-chlorophenyl)-6-phenyl-2-pyridyl]oxy}hexanoic acid], the IC50 was found to be 0.2 µM.

`O=C(O)CCCCCOc1cc(-c2cc(Cl)cc(Cl)c2)cc(-c2ccccc2)n1` [6-{[4-(3,5-dichlorophenyl)-6-phenyl-2-pyridyl]oxy}hexanoic acid]: the IC50 was found to be 0.5 µM.

Take `Nc1cccc(-c2cc(OCCCCCC(=O)O)nc(-c3ccccc3)c2)c1` [6-{[4-(3-aminophenyl)-6-phenyl-2-pyridyl]oxy}hexanoic acid]: the IC50 is 0.012 µM.

Regarding `O=C(O)CCCCCOc1cc(-c2cccc(Cl)c2)cc(-c2ccccc2)n1` [6-{[4-(3-chlorophenyl)-6-phenyl-2-pyridyl]oxy}hexanoic acid], the IC50 was 0.004 µM.

Regarding `Cc1cccc(-c2cc(OCCCCCC(=O)O)nc(-c3ccccc3)c2)c1` [6-{[4-(3-methylphenyl)-6-phenyl-2-pyridyl]oxy}hexanoic acid], the IC50 turned out to be 0.015 µM.

For the compound `O=C(O)CCCCCOc1cc(-c2ccc(NC(=O)c3ccccc3)cc2)cc(-c2ccccc2)n1` [6-{[4-(4-benzamidophenyl)-6-phenyl-2-pyridyl]oxy}hexanoic acid], the IC50 is 4 µM.

In the case of `CC(C)(CCCCOc1cc(-c2ccc(Cl)cc2)ccn1)C(=O)O` [6-{[4-(4-chlorophenyl)-2-pyridyl]oxy}-2,2-dimethylhexanoic acid], the concentration for half-maximal inhibition (IC50) stood at 0.02 µM.

Consider `O=C(O)CCCCCOc1cc(-c2ccc(Cl)cc2)c2ccccc2n1` [6-{[4-(4-chlorophenyl)-2-quinolyl]oxy}hexanoic acid], for which the concentration for half-maximal inhibition (IC50) worked out at 0.03 µM.

In the case of `COc1ccc(-c2cc(-c3ccc(Cl)cc3)cc(OCCCCCC(=O)O)n2)cc1` [6-{[4-(4-chlorophenyl)-6-(4-methoxyphenyl)-2-pyridyl]oxy}hexanoic acid], the IC50 turned out to be 1.7 µM.

For the compound `CNc1ccc(-c2cc(OCCCCC(C)(C)C(=O)O)nc(-c3ccccc3)c2)cc1` [6-{[4-(4-methylaminophenyl)-6-phenyl-2-pyridyl]oxy}-2,2-dimethylhexanoic acid], the IC50 turned out to be 0.008 µM.

As for `O=C(O)CCCCCOc1cc(-c2ccc([N+](=O)[O-])cc2)cc(-c2ccccc2)n1` [6-{[4-(4-nitrophenyl)-6-phenyl-2-pyridyl]oxy}hexanoic acid], the IC50 stood at 0.05 µM.

Turning to `O=C(O)CCCCCOc1cc(-c2ccc(NC(=O)C(F)(F)F)cc2)cc(-c2ccccc2)n1` [6-{[4-(4-trifluoroacetamidophenyl)-6-phenyl-2-pyridyl]oxy}hexanoic acid], the IC50 was 0.15 µM.

Regarding `CC(CCCCOc1cc(-c2ccc3c(c2)OCO3)cc(-c2ccccc2Cl)n1)C(=O)O` (stereo not drawn) [6-{[6-(2-chlorophenyl)-4-(3,4-methylenedioxyphenyl)-2-pyridyl]oxy}-2-methylhexanoic acid], the IC50 is 0.002 µM.

Consider `O=C(O)CCCCCOc1cc(-c2ccccc2)cc(-c2ccc(Cl)cc2)n1` [6-{[6-(4-chlorophenyl)-4-phenyl-2-pyridyl]oxy}hexanoic acid], for which the IC50 amounted to 1 µM.

In the case of `COc1ccc(-c2cc(-c3ccccc3)cc(OCCCCCC(=O)O)n2)cc1` [6-{[6-(4-methoxyphenyl)-4-phenyl-2-pyridyl]oxy}hexanoic acid], the IC50 was 1 µM.

For the compound `Cc1ccc(-c2cc(-c3ccccc3)cc(OCCCCCC(=O)O)n2)cc1` [6-{[6-(4-methylphenyl)-4-phenyl-2-pyridyl]oxy}hexanoic acid], the IC50 amounted to 0.3 µM.

As for `O=C(O)CCCCC=Cc1cccc(Cc2ccccc2)c1` [7-(3-benzyl-phenyl)6-heptenoic acid, 7-(3-benzyl-phenyl)-6-heptenoic acid], the IC50 came to 10 µM.

Consider `O=C(O)CCCCCCc1cccc(Cc2ccccc2)c1` [7-(3-benzylphenyl)heptanoic acid, 7-(3-benzyl-phenyl)heptanoic acid], for which the IC50 worked out at 7 µM.

Regarding `O=C(O)CCCCCCOc1cc(-c2ccccc2)c2ccccc2n1` [7-[(4-phenyl-2-quinolyl)oxy]heptanoic acid], the IC50 turned out to be 1.8 µM.

As for `O=C(O)CCCCCCCOc1ncc(-c2ccccc2)c(-c2ccccc2)n1` [8-(4,5-diphenyl-2-pyrimidyloxy)octanoic acid], the IC50 came to 8.5 µM.

Take `COc1ccc(-c2ccc(OCCCCCCCC(=O)O)nc2-c2ccc(OC)cc2)cc1` [8-{[5,6-bis-(4-methoxyphenyl)-2-pyridyl]oxy}octanoic acid]: the half-maximal inhibitory concentration (IC50) came to 3 µM.

For `O=C(O)CNC(=O)CCCOc1cc(-c2ccccc2)cc(-c2ccccc2)n1` [N-[4-(4,6-diphenyl-2-pyridyloxy)butanoyl]glycine], the IC50 was 0.016 µM.

Regarding `CCOC(=O)CCCCCOc1cc(-c2ccccc2)cc(-c2ccc(Cl)cc2)n1` [ethyl 6-{[6-(4-chlorophenyl)-4-phenyl-2-pyridyl]oxy}hexanoate], the IC50 stood at 5 µM.

The same test, now with this note: read-out: Binding (Cheng) % Inhibition at 10 μM.
As a reminder, the inhibition is the share of the control response that was lost under treatment. In the case of `COc1ccccc1-c1cc(OCCCCC(C)(C)C(=O)O)nc2ccccc12` [6-{[4-(2-methoxyphenyl)-2-quinolyl]oxy}-2,2-dimethylhexanoic acid], the inhibition at 10 µM was determined as 36%.

As for `COc1ccc(-c2ccc(OCCCCCC(=O)O)nc2-c2ccc(OC)cc2)cc1` [6-{[5,6-bis-(4-methoxyphenyl)-2-pyridyl]oxy}hexanoic acid], the inhibition at 10 µM was 37%.

Take `COc1ccc(-c2cc(OCCCCCC(=O)O)nc(-c3ccccc3)c2)cc1OC` [6-{[6-phenyl-4-(3,4-dimethoxyphenyl)-2-pyridyl]oxy]hexanoic acid]: the inhibition at 10 µM was determined as 21%.

As to `COc1cc(OC)cc(-c2cc(OCCCCCC(=O)O)nc(-c3ccccc3)c2)c1` [6-{[6-phenyl-4-(3,5-dimethoxyphenyl)-2-pyridyl]oxy}hexanoic acid], the inhibition at 10 µM came out at 50%.

Turning to `O=C(O)CCCCCOc1cc(-c2ccc(C(=O)O)cc2)cc(-c2ccccc2)n1` [6-{[6-phenyl-4-(4-carboxyphenyl)-2-pyridyl]oxy}hexanoic acid], the inhibition at 10 µM came out at 32%.

On to `O=C(O)CCCCCCOc1ncc(-c2ccccc2)c(-c2ccccc2)n1` [7-(4,5-diphenyl-2-pyrimidyloxy)heptanoic acid], for which the inhibition at 10 µM is 22%.

In the case of `O=C(O)CCCCC=Cc1cc(-c2ccccc2)c2ccccc2n1` [7-(4-phenyl-2-quinolyl)-6-hepten-1-oic acid], the inhibition at 10 µM came to 27%.

For `O=C(O)CCCCCCCSc1cc(-c2ccccc2)c2ccccc2n1` [sodium 8-[(4-phenyl-2-quinolyl)thio]octanoate], the inhibition at 10 µM was 31%.
